Where a SMILES comes first, the peptide text is derived from it. [ ]: non-standard residue; d: D form.
Legend:
[1] = Complex association constant (Benesi–Hildebrand method), fluorescence spectrometry; format: binding; conditions: rounded value quoted in text; technique not named at the place
Procedure: Complex association constant (Ka) was determined by spectrometric titration based on the Benesi–Hildebrand method and performed both by UV-VIS and fluorescence spectrometry. Two sets of dilutions were prepared (Tables S2–S5, Supplementary material). In the case of UV spectrometry, 275 μM DAL was kept, whereas MCD concentrations varied, either as MCD alone or as conjugated (N^+-rCh-MCD). The solutions were prepared and analyzed after being equilibrated for 1 h at room temperature. UV spectra in the range 220–325 nm were collected, and the intensity of absorbance at 282 nm was normalized on the correspondent value at 247 nm. Diversely, for fluorescence spectroscopy evaluations, DAL concentration was kept at 70 μM, and samples were analyzed by using a PerkinElmer LS 45 fluorimeter, with excitation λ set at 270 nm and the emission spectrum collected between 340 and 270 nm. The variation of fluorescence intensity was evaluated at 304 nm, and it was normalized on 285 nm. […]
The determination of the association constant (Ka) for complexes of DAL/MCD and of DAL/N^+-rCh-MCD was performed both by UV and fluorescence spectrometry. Both techniques exploited the gradual variation of DAL absorbance or fluorescence in the presence of increasing amounts of host agent. […]

[2] = biological target: T1, α-chymotrypsin (CHT) (Bos taurus, UniProt P00766); experiment: Stability under enzymatic hydrolysis by α-chymotrypsin, residual DAL by HPLC; format: in vitro ADME; conditions: 37 °C
T1 construct: purchased Sigma-Aldrich (St. Louis, MO, USA)
Procedure: GPC (Gel permeation chromatography) and HPLC analyses were carried out with a Perkin-Elmer instrument (Perkin-Elmer, Waltham, MA, USA), consisting of a Series 200 LC-290 AT pump, Rheodyne injector with a loop of 20 μL, UV-VIS SPD–6 AV detector, and Turbochrom Navigator software (Turbochrom 6.1, Perkin-Elmer, Waltham, MA, USA ). For GPC analyses, the standard pullulans were employed; the stationary phase was an X-stream H2O Mixed Bed 50 × 4.6 mm column, the mobile phase was acetate buffer 0.5 M (pH = 2.9), and the wavelength of the detector was set to 237 nm. For HPLC, the suitable mobile phase result was H2O:CH3CN = 70:30, the column was a C18 Aquapore OD-300 (Perkin-Elmer, Waltham, MA, USA) 7 µm 4.6 × 250 mm, and the wavelength of the detector was set to 227 nm.
Stock solutions of dalargin (1 mg/mL) either alone or as a 1:1 complex with MCD or polymers were mixed with α-chymotrypsin (0.36 mg/mL) solutions to obtain 0.50 mg/mL and 0.18 mg/mL (corresponding to 7.2 UI/mL) final concentrations, respectively. […] All samples were analyzed after 5 min by interrupting the digestion with temperature shock (4 °C) and extensive dilution (1:20 with cold HPLC mobile phase). Residual DAL was expressed as the percentage of initial DAL as detected by the HPLC method. […]

[3] = biological target: T1, α-chymotrypsin (CHT); experiment: Enzymatic hydrolysis of DAL by α-chymotrypsin followed by 1H NMR; format: in vitro ADME
Procedure: The same DAL/enzyme ratio and concentrations of components selected for HPLC were used in NMR analysis at 37 °C through the entire digestion process. DAL and α-chymotrypsin stock solutions were prepared in phosphate buffer (pH = 6.8) and mixed directly into the NMR tube containing predissolved polymers at 40 °C for 2 h.
By using the same DAL/CHT molar ratio selected for HPLC analysis, low and high frequency NMR spectral regions of dalargin, pure (Figure 7a) and in presence of CHT (Figure 7b, c), were monitored over time at 37 °C. In the binary mixture DAL/CHT, a rapid decrease of the original dalargin signals was observed already after 5 min with the simultaneous formation of new peaks, which was attributable to the digestion products. […] In order to obtain a quantitative parameter, we refer to the lifetime of the drug (tf), the specific time in which non-degraded DAL reached 6% with respect to the hydrolyzed products. If the mixture is maintained at room temperature (25 °C), the tf of DAL is extended up to 45 min, owing to a reduced activity of the enzyme.

[4] = Stability of pure DAL in water by 1H NMR; format: physicochemical; conditions: 37 °C, several days, 1H NMR chemical shifts and integrated areas
[5] = test system: Caco-2 monolayers; experiment: In vitro protection from enzymatic degradation on Caco-2 monolayers; format: in vitro ADME, human; conditions: DAL 50 μg/mL applied apically in HBSS, 37 °C, HPLC, three experiments
Procedure: A Caco-2 monolayer was obtained by cell seeding (10^5 cells/well) on a polycarbonate membrane filter (pore size 0.4 μm, area 1.12 cm^2) in Corning Transwell, 12-well plates (Sigma-Aldrich, Saint Louis, MO, USA). Thereafter, 0.5 and 1.5 mL of culture medium was added to apical and basolateral compartments of the transwell inserts, respectively; the culture medium was replaced every two days for 24 days. As a rule, the experiments were performed with Caco-2 monolayers that have been grown on filter inserts for 21–29 days. By day 21, the monolayers have become differentiated with regard to the expression of many transport proteins, enzymes, and brush border hydrolases. The TransEpithelial Electrical Resistance (TEER, Ωcm^2) across the Caco-2 monolayer was determined by measuring the potential difference between the apical and basolateral sides of the transwell using the Millicell-ERS (Millipore, Milano, Italy). TEER was measured prior to each experiment to ensure the confluence of the monolayers, during transport studies (every 30 min), and at 24 h from the samples’ removal to assess monolayer stability recovery. Experiments were performed by using DAL-containing samples, which had either DAL alone or the presence of polymers and cyclodextrin. […] At the end of the experiment (3 h), the apical chambers media were collected and analyzed by HPLC for DAL content evaluation.

Molecule | Association constant of DAL with host (Ka) [1] [M⁻¹] | reduction of the initial DAL content after 5 min of α-chymotrypsin ([2]; freshly prepared solutions, DAL 0.50 mg/mL alone or 1:1 with host, CHT 0.18 mg/mL (7.2 UI/mL), phosphate buffer pH 6.8, 0.4 M, HPLC-UV 227 nm, three independent experiments) [%] | stability of DAL to α-chymotrypsin, lyophilized samples redispersed in buffer ([2]; lyophilized DAL alone or 1:1 complex redispersed in PB, CHT 0.18 mg/mL, pH 6.8, 5 min, HPLC) | lifetime of the drug tf at room temperature ([3]; DAL/CHT mixture kept at 25 °C, tf = time at which non-degraded DAL reached 6%, 1H NMR) [min] | time after which digestion was almost complete ([3]; binary mixture DAL/CHT, no host, 1H NMR integrated areas, 37 °C, phosphate buffer pH 6.8, DAL 0.68 mM) [min] | stability of pure DAL in water [4] | DAL content in the apical chamber after 3 h of incubation ([5]; Caco-2 monolayers (Transwell, 21–29 days)) [µg/mL] | residual DAL in the apical chamber after 3 h of incubation ([5]; Caco-2 monolayers)
2-methyl-β-cyclodextrin [MCD] | 120 | – | – | – | – | – | – | –
CC(C)C[C@H](NC(=O)[C@H](Cc1ccccc1)NC(=O)CNC(=O)[C@@H](C)NC(=O)[C@@H](N)Cc1ccc(O)cc1)C(=O)N[C@@H](CCCNC(=N)N)C(=O)O [DAL, (D-Ala2)-Leu-Enkephalin-Arg] (H-Y[dA]GFLR-OH) | – | 80 | rapidly degraded | 45 | 14 | stable | 4.1 to 7.3 | 8%–15%

Reference: article PMC7077720, “Improvement of Peptide Affinity and Stability by Complexing to Cyclodextrin-Grafted Ammonium Chitosan” (Polymers, 2020)
